This experiment deals with T1, human RORgT (Homo sapiens, UniProt P51449).
T1 construct: expressed in transfected cells
T1 sequence (P51449 267-516): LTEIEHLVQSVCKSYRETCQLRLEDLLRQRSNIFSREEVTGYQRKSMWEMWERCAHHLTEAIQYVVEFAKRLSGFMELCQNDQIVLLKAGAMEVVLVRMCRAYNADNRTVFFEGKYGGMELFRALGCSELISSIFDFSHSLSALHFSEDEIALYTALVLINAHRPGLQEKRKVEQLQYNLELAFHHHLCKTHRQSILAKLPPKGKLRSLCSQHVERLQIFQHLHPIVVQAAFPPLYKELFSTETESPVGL
Kind of experiment: RORgT Gal4 Luciferase Reporter Gene Assay. Type of experiment: cell-based. Particulars: engineered Jurkat cells overexpressing RORgT (LBD or full length) fused with Gal4 Luc reporter; 18 hours at 37° C.; luminescence. The procedure, abridged: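 Jurkat cells expressing Gal4 Luc with either RORgT LBD (aa267-516) or full-length human RORgT, 10,000 cells/well, treated with compound (40 µM to 0.67 nM final, 3-fold dilutions) for 18 h at 37° C. Steady-Glo luminescence read; inhibition of constitutive activity as % signal-window reduction relative to a control compound.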
In the case of `CS(=O)(=O)n1cc(C(=O)N2CC[C@@]3(S(=O)(=O)c4ccccc4)c4ccc(OCc5c(Cl)cccc5Cl)cc4CC[C@@H]23)cn1` [Example 99, 4-[(3aR,9bR)-9b-(benzenesulfonyl)-7-[(2,6-dichlorophenyl)methoxy]-1H,2H,3H,3aH,4H,5H,9bH-benzo[e]indole-3-carbonyl]-1-methanesulfonyl-1H-pyrazole], the concentration for a half-maximal effect (EC50) (in general, the concentration at which the effect is half-maximal) stood at 0.748 µM. In other words, the sub-micromolar range.

For the compound `O=C(O)[C@H]1CC[C@H](C(=O)N2CC[C@@]3(S(=O)(=O)c4ccc(F)cc4)c4ccc(OCc5c(F)cccc5Cl)cc4CC[C@@H]23)CC1` [Example 1, (1r,4r)-4-[(3aR,9bR)-7-[(2-chloro-6-fluorophenyl)methoxy]-9b-(4-fluorobenzenesulfonyl)-1H,2H,3H,3aH,4H,5H,9bH-benzo[e]indole-3-carbonyl]cyclohexane-1-carboxylic acid], the half-maximal effective concentration (EC50) was 0.0084 µM.

As to `O=C1CCCN1CCC(=O)N1CC[C@@]2(S(=O)(=O)c3ccccc3)c3ccc(OCc4c(Cl)cccc4Cl)cc3CC[C@@H]12` [Example 76, 1-{3-[(3aR,9bR)-9b-(benzenesulfonyl)-7-[(2,6-dichlorophenyl)methoxy]-1H,2H,3H,3aH,4H,5H,9bH-benzo[e]indol-3-yl]-3-oxopropyl}pyrrolidin-2-one], it took 0.957 µM to reach a half-maximal effect (EC50). Against the preceding compound, the EC50 is about 110-fold higher.

`CS(=O)(=O)N1CCC(C(=O)N2CC[C@@]3(S(=O)(=O)c4ccc(F)cc4)c4ccc(OCc5c(Cl)cccc5Cl)cc4CC[C@@H]23)CC1` [Example 190, 4-[(3aR,9bR)-7-[(2,6-dichlorophenyl)methoxy]-9b-(4-fluorobenzenesulfonyl)-1H,2H,3H,3aH,4H,5H,9bH-benzo[e]indole-3-carbonyl]-1-methanesulfonylpiperidine] displayed an EC50 of 0.0087 µM.

Compound `O=C(C1CCS(=O)(=O)CC1)N1CC[C@@]2(S(=O)(=O)c3ccc(F)cc3)c3ccc(Cc4ccc(Cl)cc4)cc3CC[C@@H]12` [Example 42, 4-[(3aR,9bR)-7-[(4-chlorophenyl)methyl]-9b-(4-fluorobenzenesulfonyl)-1H,2H,3H,3aH,4H,5H,9bH-benzo[e]indole-3-carbonyl]-1λ^6-thiane-1,1-dione] had an EC50 of 0.0018 µM.

Compound `O=C(O)[C@H]1CC[C@](O)(C(=O)N2CC[C@@]3(S(=O)(=O)c4ccc(F)cc4)c4ccc(OCc5cc(Cl)ccc5Cl)cc4CC[C@@H]23)CC1` [Example 112, (1 s,4 s)-4-[(3aR,9bR)-7-[(2,5-dichlorophenyl)methoxy]-9b-(4-fluorobenzenesulfonyl)-1H,2H,3H,3aH,4H,5H,9bH-benzo[e]indole-3-carbonyl] -4-hydroxycyclohexane-1-carboxylic acid] came in with an EC50 of 0.0036 µM.

`CS(=O)(=O)NCC(=O)N1CC[C@@]2(S(=O)(=O)c3ccccc3)c3ccc(OCc4c(Cl)cccc4Cl)cc3CC[C@@H]12` [Example 58, N-{2-[(3aR,9bR)-9b-(benzenesulfonyl)-7-[(2,6-dichlorophenyl)methoxy]-1H,2H,3H,3aH,4H,5H,9bH-benzo[e]indol-3-yl]-2-oxoethyl} methanesulfonamide] displayed an EC50 of 0.587 µM.

`O=C(O)[C@H]1CC[C@H](C(=O)N2CC[C@@]3(S(=O)(=O)c4ccc(F)cc4)c4ccc(OCc5cc(F)c(F)cc5Cl)cc4CC[C@@H]23)CC1` [Example 151, (1r,4r)-4-[(3aR,9bR)-7-[(2-chloro-4,5-difluorophenyl)methoxy]-9b-(4-fluorobenzenesulfonyl)-1H,2H,3H,3aH,4H,5H,9bH-benzo[e]indole-3-carbonyl]cyclohexane-1-carboxylic acid]: a half-maximal response (EC50) required 0.016 µM.

Consider `CS(=O)(=O)CC(=O)N1CC[C@@]2(S(=O)(=O)c3ccc(F)cc3)c3ccc(OCc4c(F)cccc4C(F)(F)F)cc3CC[C@@H]12` [Example 188, 1-[(3aR,9bR)-7-{[2-fluoro-6-(trifluoromethyl)phenyl]methoxy}-9b-(4-fluorobenzenesulfonyl)-1H,2H,3H,3aH,4H,5H,9bH-benzo[e]indol-3-yl]-2-methanesulfonylethan-1-one], for which the response was half-maximal at 0.075 µM (EC50).

Consider `O=C(C1CCS(=O)(=O)C1)N1CC[C@@]2(S(=O)(=O)c3ccccc3)c3ccc(OCc4c(F)cccc4Cl)cc3CC[C@@H]12` (stereo partly drawn) [Example 135, 3-[(3aR,9bR)-9b-(benzenesulfonyl)-7-[(2-chloro-6-fluorophenyl)methoxy]-1H,2H,3H,3aH,4H,5H,9bH-benzo[e]indole-3-carbonyl]-1λ^6-thiolane-1,1-dione], for which it took 0.0097 µM to reach a half-maximal effect (EC50). This EC50 is about 7.7-fold lower than that of the compound before.

`Cc1ccccc1Oc1ccc2c(c1)CC[C@H]1N(C(=O)C3(C)CCS(=O)(=O)CC3)CC[C@@]21S(=O)(=O)c1ccc(F)cc1` [Example 48, 4-[(3aR,9bR)-9b-(4-fluorobenzenesulfonyl)-7-(2-methylphenoxy)-1H,2H,3H,3aH,4H,5H,9bH-benzo[e]indole-3-carbonyl]-4-methyl-1λ^6-thiane-1,1-dione] returned an EC50 of 0.0075 µM. This EC50 and that of the compound before are within 1.5-fold of each other.

For the compound `O=C(C1CCS(=O)(=O)C1)N1CC[C@@]2(S(=O)(=O)c3ccc(F)cc3)c3ccc(OCc4c(Cl)cccc4Cl)cc3CC[C@@H]12` (stereo partly drawn) [Example 170, 3-[(3aR,9bR)-7-[(2,6-dichlorophenyl)methoxy]-9b-(4-fluorobenzenesulfonyl)-1H,2H,3H,3aH,4H,5H,9bH-benzo[e]indole-3-carbonyl]-1λ^6-thiolane-1,1-dione], the EC50 was determined as 0.014 µM. This EC50 is about 1.9-fold higher than that of the compound before.

For the compound `CN1NC(=O)C[C@H]1C(=O)N1CC[C@@]2(S(=O)(=O)c3ccccc3)c3ccc(OCc4c(F)cccc4Cl)cc3CC[C@@H]12` [Example 144, (5S)-5-[(3aR,9bR)-9b-(benzenesulfonyl)-7-[(2-chloro-6-fluorophenyl)methoxy]-1H,2H,3H,3aH,4H,5H,9bH-benzo[e]indole-3-carbonyl]-1-methylpyrazolidin-3-one], a half-maximal effect (EC50) was put at 0.111 µM.

Compound `O=C(C1CCS(=O)(=O)CC1)N1CC[C@@]2(S(=O)(=O)c3ccc(F)cc3)c3ccc(Sc4c(Cl)cccc4Cl)cc3CC[C@@H]12` [Example 118, 4-[(3aR,9bR)-7-[(2,6-dichlorophenyl)sulfanyl]-9b-(4-fluorobenzenesulfonyl)-1H,2H,3H,3aH,4H,5H,9bH-benzo[e]indole-3-carbonyl]-1λ^6-thiane-1,1-dione] yielded an EC50 of 0.0013 µM. This EC50 lies about 85-fold lower than the previous one.

In turn, `CN1CCC(C(=O)N2CC[C@@]3(S(=O)(=O)c4ccc(F)cc4)c4ccc(OCc5cc(F)c(F)cc5Cl)cc4CC[C@@H]23)CC1` [Example 212, 4-[(3aR,9bR)-7-[(2-chloro-4,5-difluorophenyl)methoxy]-9b-(4-fluorobenzenesulfonyl)-1H,2H,3H,3aH,4H,5H,9bH-benzo[e]indole-3-carbonyl]-1-methylpiperidine] had an EC50 of 0.16 µM. This EC50 lies about 120-fold higher than the previous one.

Compound “(1R,4r)-4-((3aR,9bR)-7-((2-chloro-6-fluorobenzyl)oxy)-9b-((4-fluorophenyl)sulfonyl)-2,3,3a,4,5,9b-hexahydro-1H-benzo[e]indole-3-carbonyl)-1-methylcyclohexanecarboxylic acid [Example 8]” returned an EC50 of 0.012 µM.

`O=C(C1CCS(=O)(=O)CC1)N1CC[C@@]2(S(=O)(=O)c3ccccc3)c3ccc(OCc4c(F)ccc(F)c4Cl)cc3CC[C@@H]12` [Example 131, 4-[(3aR,9bR)-9b-(benzenesulfonyl)-7-[(2-chloro-3,6-difluorophenyl)methoxy]-1H,2H,3H,3aH,4H,5H,9bH-benzo[e]indole-3-carbonyl]-1λ^6-thiane-1,1-dione]: a half-maximal effect (EC50) was put at 0.0086 µM.

As for `O=C(N1CC[C@@]2(S(=O)(=O)c3ccccc3)c3ccc(OCc4c(Cl)cccc4Cl)cc3CC[C@@H]12)C1(O)CCS(=O)(=O)CC1` [Example 105, 4-[(3aR,9bR)-9b-(benzenesulfonyl)-7-[(2,6-dichlorophenyl)methoxy]-1H,2H,3H,3aH,4H,5H,9bH-benzo[e]indole-3-carbonyl]-4-hydroxy-1λ^6-thiane-1,1-dione], the EC50 amounted to 0.0079 µM.

Regarding `CS(=O)(=O)N1CCC(C(=O)N2CC[C@@]3(S(=O)(=O)c4ccc(F)cc4)c4ccc(OCc5c(F)cccc5Cl)cc4CC[C@@H]23)CC1` [Example 164, 4-[(3aR,9bR)-7-[(2-chloro-6-fluorophenyl)methoxy]-9b-(4-fluorobenzenesulfonyl)-1H,2H,3H,3aH,4H,5H,9bH-benzo[e]indole-3-carbonyl]-1-methanesulfonylpiperidine], the EC50 turned out to be 0.024 µM.

As to `CS(=O)(=O)C1CCN(C(=O)N2CC[C@@]3(S(=O)(=O)c4ccccc4)c4ccc(OCc5c(Cl)cccc5Cl)cc4CC[C@@H]23)C1` (stereo partly drawn) [Example 93, 1-[(3aR,9bR)-9b-(benzenesulfonyl)-7-[(2,6-dichlorophenyl)methoxy]-1H,2H,3H,3aH,4H,5H,9bH-benzo[e]indole-3-carbonyl]-3-methanesulfonylpyrrolidine], it took 0.29 µM to reach a half-maximal effect (EC50).

Turning to `CN1CCC(C(=O)N2CC[C@@]3(S(=O)(=O)c4ccc(F)cc4)c4ccc(OCc5cc(Cl)ccc5Cl)cc4CC[C@@H]23)CC1` [Example 204, 4-[(3aR,9bR)-7-[(2,5-dichlorophenyl)methoxy]-9b-(4-fluorobenzenesulfonyl)-1H,2H,3H,3aH,4H,5H,9bH-benzo[e]indole-3-carbonyl]-1-methylpiperidine], the EC50 was found to be 0.076 µM.

`NS(=O)(=O)CC(=O)N1CC[C@@]2(S(=O)(=O)c3ccc(F)cc3)c3ccc(OCc4c(F)cccc4Cl)cc3CC[C@@H]12` [Example 154, 2-[(3aR,9bR)-7-[(2-chloro-6-fluorophenyl)methoxy]-9b-(4-fluorobenzenesulfonyl)-1H,2H,3H,3aH,4H,5H,9bH-benzo[e]indol-3-yl]-2-1 oxoethane-1-sulfonamide]: the EC50 came to 0.058 µM.

As for `O=C(Nc1ccncc1)N1CC[C@@]2(S(=O)(=O)c3ccccc3)c3ccc(OCc4c(Cl)cccc4Cl)cc3CC[C@@H]12` [Example 87, (3aR,9bR)-9b-(benzenesulfonyl)-7-[(2,6-dichlorophenyl)methoxy]-N-(pyridin-4-yl)-1H,2H,3H,3aH,4H,5H,9bH-benzo[e]indole-3-carboxamide], a half-maximal effect (EC50) was put at 0.039 µM. This EC50 and that of the compound before are within 1.5-fold of each other.
